The numbers were not newly measured in patent US20250248977A1, “Tablet Formulation Of Tafamidis Or Pharmaceutically Acceptable Salt Thereof” (Navinta LLC, priority 2024, published 2025), which cites them from elsewhere.

In the case of `O=C(O)c1ccc2nc(-c3cc(Cl)cc(Cl)c3)oc2c1` [Tafamidis, 2-(3,5-dichlorophenyl)-1,3-benzoxazole-6-carboxylic acid], the aqueous solubility result is reported as “low”.
